Results from ChEMBL document CHEMBL4392829, “Synthesis and biological evaluation of 3-substituted 2-oxindole derivatives as new glycogen synthase kinase 3β inhibitors” (Bioorg Med Chem, 2019).
Activity calls are given as the source filed them. The rule behind the calls is not given here.

Key:
[1] = target: Glycogen synthase kinase-3 beta (Homo sapiens, UniProt P49841); assay: Inhibition of recombinant human GSK3beta using YRRAAVPPSPSLSRHSSPHQ(pS)EDEEE as substrate measured after 60 mins by ADP-Glo luminescence assay
[2] = tested on: A549; assay: Cytotoxicity against human A549 cells assessed as reduction in cell viability measured after 72 hrs by MTT assay; format: cell-based
[3] = tested on: PBMC; assay: Cytotoxicity against human PBMC assessed as reduction in cell viability at 0.1 to 10 uM measured after 24 hrs by MTT assay; format: cell-based
[4] = tested on: Rattus norvegicus; assay: Antidiabetic activity in […]/STZ-induced obese type-2 diabetes Wistar rat model assessed as reduction in blood glucose level at 50 mg/kg, ip pretreated for 30 mins followed by glucose challenge and measured up to 120 mins by OGTT; format: functional, organism-based
[5] = tested on: Rattus norvegicus; assay: Antidiabetic activity in […]/STZ-induced obese type-2 diabetes Wistar rat model assessed as reduction in blood glucose level at 10 mg/kg, ip pretreated for 30 mins followed by glucose challenge and measured up to 120 mins by OGTT; format: functional, organism-based
[6] = tested on: PBMC; assay: Cytotoxicity against human PBMC assessed as reduction in cell viability at 10 uM measured after 24 hrs by MTT assay; format: cell-based
[7] = Homo sapiens, A549, 72 h, read-out: IC50

Sequence of Glycogen synthase kinase-3 beta (P49841 whole entry): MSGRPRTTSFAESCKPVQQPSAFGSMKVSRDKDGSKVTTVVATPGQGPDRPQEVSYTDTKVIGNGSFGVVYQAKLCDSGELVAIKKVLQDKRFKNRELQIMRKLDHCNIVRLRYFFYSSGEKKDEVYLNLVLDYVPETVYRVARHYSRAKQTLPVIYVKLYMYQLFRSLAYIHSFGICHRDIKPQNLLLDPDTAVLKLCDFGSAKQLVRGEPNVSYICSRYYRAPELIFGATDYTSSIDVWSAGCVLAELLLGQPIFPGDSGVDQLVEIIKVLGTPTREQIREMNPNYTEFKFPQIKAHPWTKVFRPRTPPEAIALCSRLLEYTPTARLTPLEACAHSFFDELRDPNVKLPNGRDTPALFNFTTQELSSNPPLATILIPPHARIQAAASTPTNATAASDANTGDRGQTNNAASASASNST

Row | Structure (SMILES) | IC50 [1] [µM] | IC50 [2, 7] [µM] | also measured
1 | O=C1Nc2ccccc2/C1=C/c1ccco1 | > 10 | 595 | 
2 | O=C1Nc2ccccc2C12CC2c1ccccn1 (stereo not given) | 1.23 | > 100 | Activity [3]: Non-Toxic
3 | COc1ccc2c(c1)/C(=C/C#N)C(=O)N2Cc1ccccc1 | > 10 |  | 
4 | O=C1Nc2ccccc2C1=Cc1ccncc1 (mixture of isomers) | > 10 | 80.3 | 
5 | O=C1Nc2ccc(Br)cc2C1=Cc1ccc(Br)cc1 (mixture of isomers) | > 10 | 242 | 
6 | COc1ccc(C(=O)CC2(O)C(=O)Nc3ccccc32)cc1 (stereo not given) | > 10 | > 100 | 
7 | O=C1Nc2ccc(Br)cc2C1=Cc1cccs1 (mixture of isomers) | > 10 | 427 | 
8 | O=C1Nc2ccccc2/C1=C/c1ccccn1 | 0.00419 | 48 | Activity [3]: Non-Toxic; Activity [4]: Active
9 | Cc1ccc(C(=O)/C=C2\C(=O)Nc3ccccc32)cc1 | > 10 | 18.7 | 
10 | O=C1Nc2ccc(Br)cc2/C1=C\c1ccccn1 | > 10 | 90.6 | 
11 | COc1ccc2c(c1)C(O)(CC(=O)c1ccc(C)cc1)C(=O)N2 (stereo not given) | > 10 | > 100 | 
12 | O=C1Nc2ccc([N+](=O)[O-])cc2/C1=C\c1ccccn1 | 20 |  | IC50 ([2]; a549): Non-Toxic
13 | Cc1ccc(C(=O)CC2(O)C(=O)Nc3ccccc32)cc1 (stereo not given) | > 10 | 171 | 
14 | O=C1Nc2ccccc2C1=Cc1cccnc1 (mixture of isomers) | > 10 |  | IC50 ([2]; a549, read-out: IC50): 67.5 µM
15 | N#CCC1(O)C(=O)Nc2ccc(NC(=O)c3ccccc3)cc21 (stereo not given) | > 10 |  | 
16 | CC[C@@]1(O)C(=O)OCc2c1cc1n(c2=O)Cc2cc3ccccc3nc2-1 [CAMPTOTHECIN] |  | 3.32 | 
17 | COC(=O)Nc1ccc2c(c1)/C(=C/c1ccc(Br)cc1)C(=O)N2 | > 10 | > 100 | 
18 | O=C1Nc2ccccc2/C1=C/c1cccs1 | > 10 | 491 | 
19 | O=C1Nc2ccc([N+](=O)[O-])cc2C1=Cc1ccncc1 (mixture of isomers) | > 10 |  | IC50 ([2]; a549): Non-Toxic

Row | Structure (SMILES) | IC50 [1] [µM] | IC50 [2, 7] [µM] | also measured
20 | COc1ccc(C(=O)CC2(O)C(=O)Nc3ccc(Br)cc32)cc1 (stereo not given) | > 10 | 474 | 
21 | CCC(=O)Nc1cc(NC(=O)CC)c2c(c1)C(CC#N)(OC(=O)CC)C(=O)N2 (stereo not given) | > 10 |  | 
22 | COC(=O)Nc1ccc2c(c1)C(=Cc1ccc([N+](=O)[O-])cc1)C(=O)N2 (mixture of isomers) |  |  | Activity [3]: Non-Toxic; IC50 ([2]; a549, read-out: IC50): > 100 µM
23 | O=C1Nc2ccc(Br)cc2C1=Cc1ccncc1 (mixture of isomers) | > 10 | 22.3 | 
24 | CC(=O)Nc1ccc2c(c1)/C(=C/c1cccc(O)c1)C(=O)N2 | > 10 | 176 | 
25 | CC(=O)Nc1ccc2c(c1)C(CC(=O)O)(OC(C)=O)C(=O)N2 (stereo not given) | > 10 |  | 
26 | COc1cccc2c1C(=O)c1c(O)c3c(c(O)c1C2=O)C[C@@](O)(C(C)=O)C[C@@H]3O[C@H]1C[C@H](N)[C@H](O)[C@H](C)O1 [DAUNORUBICIN] |  | 0.15 | 
27 | N#C[C@@H]1CCCN1C(=O)CNC12CC3CC(CC(O)(C3)C1)C2 |  |  | Activity [5]: Active
28 | O=C1Nc2ccc(Br)cc2C1=Cc1cccnc1 (mixture of isomers) | > 10 | 31.4 | 
29 | COc1ccc2c(c1)/C(=C/C(=O)O)C(=O)N2 | > 10 |  | 
30 | COc1cc(/C=C2\C(=O)Nc3ccc(NC(C)=O)cc32)cc(OC)c1OC |  |  | Activity [3]: Non-Toxic; IC50 ([2]; a549, read-out: IC50): 149 µM
31 | COC(=O)Nc1ccc2c(c1)/C(=C/c1ccc(O)cc1)C(=O)N2 |  |  | Activity [3]: Non-Toxic; IC50 ([2]; a549, read-out: IC50): 44.4 µM
32 | COc1cc(NC(C)=O)c2c(c1)C(CC#N)(OC(C)=O)C(=O)N2 (stereo not given) | > 10 |  | 
33 | O=C1Nc2ccc([N+](=O)[O-])cc2C1=Cc1cccnc1 (mixture of isomers) | > 10 |  | IC50 ([2]; a549, read-out: IC50): 429 µM
34 | O=C1Nc2ccc([N+](=O)[O-])cc2/C1=C/c1ccco1 | 12.8 |  | IC50 ([2]; a549, read-out: IC50): 329 µM
35 | COc1cccc2c1C(=O)c1c(O)c3c(c(O)c1C2=O)C[C@@](O)(C(=O)CO)C[C@@H]3O[C@H]1C[C@H](N)[C@H](O)[C@H](C)O1 [DOXORUBICIN] |  | 0.17 | 
36 | Cc1ccc(C(=O)CC2(O)C(=O)Nc3ccc(Br)cc32)cc1 (stereo not given) | > 10 | > 100 | 
37 | O=C1Nc2ccc(NC(=O)c3ccccc3)cc2/C1=C/c1ccc(O)cc1 | 4.34 |  | IC50 ([2]; a549, read-out: IC50): 412 µM; Activity [6]: Toxic
38 | O=C1Nc2ccc(Br)cc2C1=Cc1ccco1 (mixture of isomers) | > 10 | 449 | 
